Experiments:
[1] = tested on: collagen type II-induced arthritis in DBA/1J mice; test: Collagen-induced arthritis (CIA) model with therapeutic treatment; type: in vivo
Procedure: CIA induction is performed by following the aforementioned protocol.
After the boost injection, animals were monitored daily for clinical signs of the disease and treatment with montanine at 0.5 and 1.5 mg/kg is started on the day of clinical detection of CIA. Animals given sterile saline, the treatment vehicle, were deemed as the positive control group, i.e. untreated. The drug was administered twice daily for 10 days by the intraperitoneal route.
Animals were monitored daily for analyzing the clinical signs of arthritis by means of the severity score as follows: 0-no signs of disease; 1-mild erythema and edema; 2-moderate erythema and edema; 3-severe erythema and edema extending from the knee to the metatarsus; 4-severe erythema and edema with loss of function. The total score is the average of the scores on the legs from the onset of the disease.
Articular hypernociception was assessed as previously described by Pinto LG et al. 2010. For this model, a polypropylene tip was adapted to the manual force transducer, a force was applied on the subplantar surface of the paw producing tibiotarsal bending motion. The automatic pressure meter recorded the strength of the applied force when the paw is removed. The assay is repeated 3 times sequentially to provide a consistent measurement, the limiar being expressed in grams (g).
The tibio-tarsal joints of DBA/1 J animals were isolated and immersed in 10% buffered formalin for fixation for 24 hours. Then, tissues were decalcified in 10% trichloroacetic acid (TCA) for approximately 18 hours. These tissues were dehydrated and embedded in paraffin blocks. Six pm-thick cuts were arranged on a microscope slide. […] All the cuts were assessed under a microscope by two blinded observers, and the images captured by digital camera.

healthy mice = test: Immunosuppression assay in healthy animals (complete blood count); type: in vivo; details: 0.5 or 1.5 mg/kg every 12 hours for 3 days, then 3 days without treatment
Procedure: An immunosuppression assay in healthy animals was performed to assess the role of montanine as an immunosuppressive agent. 20 male, healthy mice of 8-12 weeks of age were used for examining the whole blood (complete blood count—parameters of: total of white blood cells (WBC); % lymphocytes (Lin %), lymphocytes/mm3 (Lin mm30; % monocytes (Mon %); monocytes/mm3 (Mon mm3); % granulocytes (Gran %); granulocytes/mm3 (Gran/mm3); total of red blood cells (RBC); hemoglobin (HGB) and total of platelets (PLQ)) of animals, which were divided as follows: healthy animals (with no treatment given) (n=4), animals treated with 0.5 or 1.5 mg/kg de montanine/12-12 hours (n=8/group). Whole blood was collected at day 0 for basal analysis of the blood parameters of the complete blood count in all animals, they were then treated for 3 days with the two doses and on the third day blood was collected again for complete blood count analysis; also, animals were still alive for three more days without any treatment for a new blood collection (FIG. 9).

synovial fibroblasts = test: Synovial fibroblast invasion test (matrigel inserts); type: cell-based; details: 1 μM, 24 h, five lines tested, vs DMSO vehicle
Procedure: To evaluate the invasion of synovial fibroblasts into matrigel inserts (collagen matrix) a BD kit (Franklin Lakes, N.J., USA) was used, and the test was performed in accordance with the manufacturer specifications.
When cells reached 70-80% confluence, they were trypsinized with trypsin-EDTA for digestion. Then, 2×10^4 cells were resuspended in 500 μI of free culture medium of fetal calf serum and placed on top of the insert. Montanine at a dose of 1 μM or the same concentration of vehicle (DMSO) was added on top of the insert with the cells. At the lower compartment 750 μI of culture medium with 10% fetal bovine serum was added. The plate was incubated at 37° C. for 24 h in a stove with 5% CO2. After the incubation period, the top of the chamber was cleaned with a swab, stained with crystal violet dye, and the total number of cells that invaded the Matrigel membrane was counted in an optical microscope at 100× magnification. Experiments were performed in duplicate.

[2] = tested on: lymphocytes from draining lymph nodes; test: Lymphocyte viability test (MTT); type: cell-based; details: 48 hours
Procedure: A lymphocyte viability test was performed to evaluate the cytotoxicity of montanine using a colorimetric MTT [3-(4,5-dimethylthiazol-2-yl)-2,5-diphenyl tetrazolium bromide] assay, as described by Tomita T. et al. 2006. Animals were euthanized and their draining lymph nodes (popliteal and inguinal) were removed aseptically. A single cell suspension was prepared, grown in triplicate (5×10^5 cells/well in a 96 well plate) and treated with montanine at the dosages (0.01 μM, 0.1 μM, 1 μM, 10 μM and 100 μM) for 48 hours at 37° C. at 5% CO2 in RPMI medium. After incubation, MTT (0.5 mg/ml) was added to each well and the plate was placed in the stove again and after 4 hours the supernatant was removed and 50 μI of dimethyl sulphoxide (DMSO, Sigma) were added. After the plate was shaken to dissolve the MTT formazan crystals, optical density (OD) of each well was measured at 570 nm using a microplate ELISA reader.

lymphocyte migration = details: 100 micrograms/mL, vs placebo; cited from earlier work
[3] = tested on: lymphocytes from draining lymph nodes; test: Lymphocyte proliferation assay (MTT), LPS or ConA stimulated; type: cell-based, BALB/c mice; details: 1 μM, 48 h
Procedure: The in vitro lymphocyte proliferation was performed using the MTT colorimetric assay described by Tomita T et al. 2006. BALB/c mice were euthanized and their draining lymph nodes were removed aseptically. A single cell suspension was prepared, grown in triplicate (5×10^5 cells/well in a 96 well plate) and treated with montanine at the dosages of 1 μM for 48 h at 37° C. at 5% CO2 in RPMI medium containing […] lipopolysaccharide (LPS) or […] of conconavalin A (ConA) or RPMI medium alone as a culture control. After incubation, MTT (0.5 mg/ml) was added to each well and the plate was placed in the stove again and after 4 hours the supernatant was removed and 50 μI of dimethyl sulphoxide (DMSO, Sigma) were added. […] After the plate was shaken to dissolve the formazan crystals, optical density (OD) of each well was measured at 570 nm.
LPS acts primarily on the B cell receptor and the Toll-like receptor 4 (TLR4), molecules that are present on the surface of B lymphocytes, thus acting on these cells. ConA acts on several receptors containing glycoproteins or lipoproteins, stimulating both lymphocytes both but acting preferably on T lymphocytes.

[4] = tested on: mBSA-induced arthritis in Balb-C mice; test: Antigen-induced arthritis (AIA) model, mBSA-induced monoarthritis; type: in vivo
Procedure: Antigen-induced arthritis (AIA) is an animal model of arthritis that is broadly described and used in worldwide literature. One of the inducing antigens in this model in Balb-C mice is methylated bovine serum albumin (mBSA), which, after systemic immunization (subcutaneous injection) is injected into the joint.
Briefly, mice were immunized in three steps with mBSA (day-0, day-7 and day-14), the first step comprising […] of mBSA protein in an emulsion of 0.1 mL of complete Freund's adjuvant's (CFA) and 0.1 mL of sterile saline solution (0.9% sodium chloride), the second and third steps were performed with the same protein concentration, the same sterile saline solution concentration and the same adjuvant concentration, but in these steps incomplete Freund's adjuvant (IFA) was used; 3 weeks after the first immunization (day 21) mBSA at a concentration of 30 ug/mL were injected into the femorotibial joint (knee) and the contralateral knee was administered with sterile saline only and serves as the control of the experiment (Grespan et al. 2008). […] Treatment with montanine was given twice daily, one day before intra-articular challenge, at the day of the challenge and at day of death, by intraperitoneal route and diluted in saline. Doses tested were 0.3; 1; 3 mg/kg. One group of animals received the treatment vehicle (saline) for control purposes, said group being designated positive control. The experiment is terminated at day 22 (24 hours after challenge and treatment) when animals were euthanized to collect the joint lavage fluid. Lavage was performed using a PBS-EDTA solution and then the number of leukocytes existing in the joint was counted in a Neubauer chamber at a 1:2 dilution with Turk's solution. Furthermore, pain of the animals was assessed in a digital analgesia-meter (von Frey) prior to intra-articular injection at time 0 (zero), 3, 5 and 24 hours after intra-articular challenge.

[5] = tested on: collagen type II-induced arthritis in DBA/1J mice; test: Collagen-induced arthritis (CIA) model with prophylactic treatment; type: in vivo
Procedure: The chronic arthritis model most widely used in the world literature is the model of collagen type II-induced arthritis (CIA). Said model shares many pathological features with the disease, such as type II collagen (CM), the major cartilage protein and one of the potential RA self-antigens. […]
After the boost injection, treatment at dosages of 0.05; 0,25 and 0.5 mg/kg was started and continued for 15 days (twice daily, intraperitoneally) and animals were monitored daily for clinical signs of the disease.
Animals were monitored daily for analyzing the clinical signs of arthritis by means of the severity score as follows: 0—no signs of disease; 1—mild erythema and edema; 2—moderate erythema and edema; 3—severe erythema and edema extending from the knee to the metatarsus; 4—severe erythema and edema with loss of function. […]
The tibio-tarsal joints of DBA/1 J animals were isolated and immersed in 10% buffered formalin for fixation for 24 hours. […] All the cuts were assessed under a microscope by two blinded observers, and the images captured by digital camera.

[6] = 0.5 mg/kg i.p. twice daily for 10 days

CO[C@H]1C=C2[C@H]3C[N@@](Cc4cc5c(cc43)OCO5)[C@H]2C[C@@H]1O [montanine]
arthritis clinical score ([1]; 0.5 mg/kg i.p. twice daily): reduction of the clinical score from the third day of treatment
histological parameters of the joint [1, 6]: improved all the histological parameters, except for synovial hyperplasia
pain (articular nociception) [1, 6]: reduced pain
immunosuppression (complete blood count) (healthy mice): does not lead to immunosuppression in any of the tested dosages
invasion of synovial fibroblasts (synovial fibroblasts): reduced the invasion of synovial fibroblasts of the five lines tested
lymphocyte viability ([2]; 0.01 μM, 0.1 μM and 1 μM): did not alter cell viability
lymphocyte viability ([2]; 10 μM): no significant difference between the cell group and the group treated with the montanine at 10 μM, however, decreased cell viability can be seen
lymphocyte viability ([2]; 100 μM): decreased cell viability can be seen, which was higher in the 100 μM dose
highest dose that did not exhibit any cytotoxic effects on the cells ([2]; lymphocytes, MTT): 1 µM
anti-inflammatory effect on the lymphocyte migration model (lymphocyte migration): unable to generate a different effect than the placebo
lymphocyte proliferation stimulated by ConA ([3]; ConA): significantly decreased
lymphocyte proliferation stimulated by LPS ([3]; LPS): had no effect
pain (joint hypernociception), onset of decrease ([4]; 3 mg/kg i.p. twice daily): decrease as of 3 hours
pain (joint hypernociception, von Frey) ([4]; 0.3, 1, 3 mg/kg i.p. twice daily, 0, 3, 5 and 24 hours after intra-articular challenge): reduction in pain at all tested doses
total leukocyte migration to the femorotibial joint ([4]; 0.3, 1, 3 mg/kg i.p., 24 hours after challenge, compared with saline group): significantly reduced at all three doses
histological parameters of the joint ([5]; 0.5 mg/kg i.p. twice daily for 15 days): improved all the histological parameters of the joint, except for synovial hyperplasia
arthritis clinical score ([5]; 0.25 and 0.5 mg/kg i.p. twice daily, from day 8 of treatment): reduced clinical score
